The text below walks through data of patent US8921376B2, “Pyrrolopyridines useful as inhibitors of protein kinase” (Vertex Pharmaceuticals Incorporated, priority 2005, dated 2014).

Common to all, as to type: biochemical
The target of assay [1] is JAK2 (Homo sapiens, UniProt O60674). In words: JAK2 inhibition assay (as Example 3 with JAK-2 enzyme). As to the method:
(§1) Compounds were screened for their ability to inhibit JAK using the assay shown below. Reactions were carried out in a kinase buffer containing 100 mM HEPES (pH 7.4), 1 mM DTT, 10 mM MgCl2, 25 mM NaCl, and 0.01% BSA.
(§2) Substrate concentrations in the assay were 5 μM ATP (200 μCi/μmole ATP) and 1 μM poly(Glu)4Tyr. Reactions were carried out at 25° C. and 1 nM JAK3.
(§3) To each well of a 96 well polycarbonate plate was added 1.5 μl of a candidate JAK3 inhibitor along with 50/1 of kinase buffer containing 2 μM poly(Glu)4Tyr and 10 μM ATP. This was then mixed and 50 μl of kinase buffer containing 2 nM JAK3 enzyme was added to start the reaction. After 20 minutes at room temperature (25 C), the reaction was stopped with 50 μl of 20% trichloroacetic acid (TCA) that also contained 0.4 mM ATP. The entire contents of each well were then transferred to a 96 well glass fiber filter plate using a TomTek Cell Harvester. After washing, 60 μl of scintillation fluid was added and ^33P incorporation detected on a Perkin Elmer TopCount.
The assays were as described above in Example 3 except that JAK-2 enzyme was used, the final poly(Glu)4Tyr concentration was 15 μM, and final ATP concentration was 12 μM.

For assay [2], the target named is ROCK I (Homo sapiens, UniProt Q13464). As to the kind of experiment: ROCK-I inhibition assay (radioactive enzyme assay, MBP substrate). As to the method:
Compounds were screened for their ability to inhibit ROCK using a standard radioactive enzyme assay. Assays were carried out in a solution containing 100 mM HEPES (pH 7.5), 10 mM MgCl2, 25 mM NaCl, 2 mM DTT, and 1.5% DMSO. Final substrate concentrations in the assay were 13 μM [γ-^33P] ATP (25 mCi ^33P ATP/mmol ATP, Perkin Elmer, Cambridge, Mass./Sigma Chemicals, St Louis, Mo.) and 27 μM Myelin Basic Protein (MBP). Final enzyme concentration in the assay was 5 nM ROCK. Assays were carried out at room temperature. 1.5 μl of DMSO stock containing serial dilutions of the compound of the present invention (concentrations ranging from 10 μM to 2.6 nM) was placed in a 96 well plate. 50 μl of Solution 1 (100 mM HEPES (pH 7.5), 10 mM MgCl2, […]) was added to the plate. The reaction was initiated by addition of 50 μl of Solution 2 (100 mM HEPES (pH 7.5), 10 mM MgCl2, 4 mM DTT, […] and 10 nM ROCK). After 2 hours the reaction was quenched with 50 μL of 30% trichloroacetic acid (TCA, Fisher) containing 9 mM ATP. Transfer of 140 μL of the quenched reaction to a glass fiber filter plate (Corning, Cat. No. 3511) was followed by washing 3 times with 5% TCA. 50 μl of Optima Gold scintillation fluid (Perkin Elmer) was added and the plates were counted on a Top Count (Perkin Elmer). After removing mean background values for all of the data points the data was fit using Prism software to obtain a Ki(app).

For assay [3], the target named is T1, JAK3 (Homo sapiens, UniProt P52333).
T1 sequence (P52333 1-1124): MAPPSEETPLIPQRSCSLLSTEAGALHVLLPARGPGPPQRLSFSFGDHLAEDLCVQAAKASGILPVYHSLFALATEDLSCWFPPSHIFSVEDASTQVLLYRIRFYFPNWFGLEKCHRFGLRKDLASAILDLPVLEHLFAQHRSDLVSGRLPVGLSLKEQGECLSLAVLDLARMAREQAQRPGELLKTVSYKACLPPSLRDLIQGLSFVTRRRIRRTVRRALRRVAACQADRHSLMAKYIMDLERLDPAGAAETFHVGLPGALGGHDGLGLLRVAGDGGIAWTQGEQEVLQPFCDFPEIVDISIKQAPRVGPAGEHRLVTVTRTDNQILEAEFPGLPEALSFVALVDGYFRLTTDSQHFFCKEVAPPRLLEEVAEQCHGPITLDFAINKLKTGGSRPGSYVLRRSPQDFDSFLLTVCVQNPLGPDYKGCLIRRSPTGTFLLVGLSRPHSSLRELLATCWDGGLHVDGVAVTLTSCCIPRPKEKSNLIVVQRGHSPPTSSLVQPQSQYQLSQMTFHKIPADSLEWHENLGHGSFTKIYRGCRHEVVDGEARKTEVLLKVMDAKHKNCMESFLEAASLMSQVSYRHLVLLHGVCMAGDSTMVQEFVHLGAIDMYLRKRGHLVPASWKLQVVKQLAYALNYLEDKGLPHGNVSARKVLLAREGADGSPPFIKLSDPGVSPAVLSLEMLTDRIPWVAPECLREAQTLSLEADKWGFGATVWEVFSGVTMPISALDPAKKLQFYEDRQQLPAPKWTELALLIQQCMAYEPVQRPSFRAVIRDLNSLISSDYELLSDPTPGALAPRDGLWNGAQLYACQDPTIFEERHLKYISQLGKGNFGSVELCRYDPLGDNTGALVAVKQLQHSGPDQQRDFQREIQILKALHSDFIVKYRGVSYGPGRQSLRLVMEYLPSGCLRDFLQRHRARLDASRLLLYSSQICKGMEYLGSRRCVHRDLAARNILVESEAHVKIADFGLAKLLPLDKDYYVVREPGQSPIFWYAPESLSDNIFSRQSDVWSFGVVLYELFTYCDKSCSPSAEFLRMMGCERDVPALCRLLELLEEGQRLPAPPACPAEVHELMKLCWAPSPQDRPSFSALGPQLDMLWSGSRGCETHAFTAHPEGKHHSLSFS
As to the kind of experiment: JAK3 inhibition assay (33P incorporation into poly(Glu)4Tyr). The protocol: as §1, §2, §3

Setting [4] is: Table 6, enzyme inhibition data (Ki).
Setting [5] is: enzyme inhibition, Ki(app), Table 5.

Chain of JAK2 (O60674 whole entry): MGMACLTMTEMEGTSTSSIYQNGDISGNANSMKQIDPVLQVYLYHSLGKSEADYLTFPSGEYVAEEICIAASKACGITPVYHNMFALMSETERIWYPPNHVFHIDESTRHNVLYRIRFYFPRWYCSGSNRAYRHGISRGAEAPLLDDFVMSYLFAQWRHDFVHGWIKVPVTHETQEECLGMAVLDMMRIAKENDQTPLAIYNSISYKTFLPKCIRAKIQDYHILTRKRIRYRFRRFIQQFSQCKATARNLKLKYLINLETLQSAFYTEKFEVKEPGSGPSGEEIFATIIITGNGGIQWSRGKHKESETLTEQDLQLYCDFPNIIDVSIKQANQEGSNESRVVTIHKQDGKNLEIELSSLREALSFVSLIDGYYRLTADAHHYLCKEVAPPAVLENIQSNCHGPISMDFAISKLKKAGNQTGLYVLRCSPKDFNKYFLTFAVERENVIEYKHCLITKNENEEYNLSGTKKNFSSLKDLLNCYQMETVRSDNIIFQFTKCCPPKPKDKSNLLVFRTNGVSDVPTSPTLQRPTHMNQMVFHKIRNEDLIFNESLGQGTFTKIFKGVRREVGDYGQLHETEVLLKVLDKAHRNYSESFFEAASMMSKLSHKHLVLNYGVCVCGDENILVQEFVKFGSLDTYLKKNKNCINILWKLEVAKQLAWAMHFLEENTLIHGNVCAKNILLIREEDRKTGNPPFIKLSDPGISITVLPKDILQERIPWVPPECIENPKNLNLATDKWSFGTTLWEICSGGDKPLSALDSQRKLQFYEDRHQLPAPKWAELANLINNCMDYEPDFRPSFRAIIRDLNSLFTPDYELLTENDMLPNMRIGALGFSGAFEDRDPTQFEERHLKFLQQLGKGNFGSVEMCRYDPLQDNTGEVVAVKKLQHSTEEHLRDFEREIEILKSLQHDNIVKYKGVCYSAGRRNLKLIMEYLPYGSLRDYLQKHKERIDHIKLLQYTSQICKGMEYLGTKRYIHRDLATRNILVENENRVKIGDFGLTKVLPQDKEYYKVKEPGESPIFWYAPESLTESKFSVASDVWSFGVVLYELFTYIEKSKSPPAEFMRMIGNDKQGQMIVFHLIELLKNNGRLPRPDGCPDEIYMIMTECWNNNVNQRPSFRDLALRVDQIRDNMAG
Chain of ROCK I (Q13464 whole entry): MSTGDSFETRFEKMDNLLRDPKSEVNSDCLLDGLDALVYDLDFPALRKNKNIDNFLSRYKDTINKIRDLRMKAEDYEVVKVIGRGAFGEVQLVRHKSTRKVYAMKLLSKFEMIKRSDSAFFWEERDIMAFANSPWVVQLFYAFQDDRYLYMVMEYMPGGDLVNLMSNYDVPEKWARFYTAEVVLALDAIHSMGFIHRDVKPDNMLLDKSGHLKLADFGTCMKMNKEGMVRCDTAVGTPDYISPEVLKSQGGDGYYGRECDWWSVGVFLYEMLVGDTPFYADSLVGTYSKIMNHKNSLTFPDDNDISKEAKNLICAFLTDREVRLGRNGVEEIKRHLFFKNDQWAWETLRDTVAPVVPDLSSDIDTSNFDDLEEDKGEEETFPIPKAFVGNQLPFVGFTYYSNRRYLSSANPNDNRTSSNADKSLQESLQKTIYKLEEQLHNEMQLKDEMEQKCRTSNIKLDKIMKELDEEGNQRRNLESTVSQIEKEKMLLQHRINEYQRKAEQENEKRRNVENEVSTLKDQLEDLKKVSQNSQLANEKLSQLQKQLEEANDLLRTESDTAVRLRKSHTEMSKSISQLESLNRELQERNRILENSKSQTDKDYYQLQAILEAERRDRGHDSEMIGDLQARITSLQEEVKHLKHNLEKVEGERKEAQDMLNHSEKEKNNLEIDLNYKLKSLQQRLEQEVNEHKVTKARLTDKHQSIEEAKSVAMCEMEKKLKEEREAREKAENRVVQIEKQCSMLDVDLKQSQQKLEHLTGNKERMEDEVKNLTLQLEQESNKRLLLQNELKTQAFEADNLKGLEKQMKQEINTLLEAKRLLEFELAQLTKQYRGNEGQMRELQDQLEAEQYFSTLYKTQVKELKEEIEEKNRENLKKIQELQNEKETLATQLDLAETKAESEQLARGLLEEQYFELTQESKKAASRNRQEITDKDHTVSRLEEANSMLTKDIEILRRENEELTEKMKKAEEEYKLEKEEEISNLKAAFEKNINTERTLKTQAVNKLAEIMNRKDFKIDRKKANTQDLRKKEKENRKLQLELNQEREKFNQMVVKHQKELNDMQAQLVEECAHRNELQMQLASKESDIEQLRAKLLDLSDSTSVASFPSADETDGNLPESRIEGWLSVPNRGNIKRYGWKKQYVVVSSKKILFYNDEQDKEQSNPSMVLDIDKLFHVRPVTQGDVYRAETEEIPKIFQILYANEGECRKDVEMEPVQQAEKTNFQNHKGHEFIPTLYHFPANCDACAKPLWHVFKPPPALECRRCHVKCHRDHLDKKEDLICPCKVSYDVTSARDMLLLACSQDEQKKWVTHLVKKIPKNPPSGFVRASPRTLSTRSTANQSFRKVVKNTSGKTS

Regarding `Clc1cnc2[nH]ccc2c1-c1ccoc1` [compound 139], the figures for the Ki in assay [1] (setting [4]), in assay [2] (setting [4]) and in assay [3] (setting [4]) were less than 500 nM, 500 to 5000 nM and less than 500 nM, respectively.
`O=C(NCC(F)F)c1cc(-c2ccnc3[nH]ccc23)c[nH]1` [compound 292]: the Ki in assay [1] (setting [4]), in assay [2] (setting [4]) and in assay [3] (setting [4]) was less than 500 nM throughout.
For `O=C(CC1CCCC1)Nc1nc(-c2ccnc3[nH]ccc23)cs1` [compound 379], the Ki in assay [1] (setting [4]), in assay [2] (setting [4]) and in assay [3] (setting [4]) was less than 500 nM in each case.
For the molecule `CC(C)CNC(=O)c1cc(-c2ccnc3[nH]ccc23)c[nH]1` [compound 291], the Ki in assay [1] (setting [4]), in assay [2] (setting [4]) and in assay [3] (setting [4]) was less than 500 nM throughout.
With `CN(C)CCCN(C)C(=O)c1cc(-c2c(Cl)cnc3[nH]ccc23)c[nH]1` [compound 349], the Ki was 500 to 5000 nM in assay [1] (setting [4]), more than 4000 nM in assay [2] (setting [4]) and 500 to 5000 nM in assay [3] (setting [4]).
As for `FC(F)(F)c1ccccc1-c1ccnc2[nH]ccc12` [compound 208], the Ki is more than 5000 nM in assay [1] (setting [4]), 500 to 5000 nM in assay [2] (setting [4]) and more than 5000 nM in assay [3] (setting [4]).
Regarding `CSc1ccccc1-c1ccnc2[nH]ccc12` [compound 239], the Ki in assay [1] (setting [4]), in assay [2] (setting [4]) and in assay [3] (setting [4]) was 500 to 5000 nM each time.
In the case of `CC(C)CC(=O)Nc1nc(-c2ccnc3[nH]ccc23)cs1` [compound 378], the Ki in assay [1] (setting [4]), in assay [2] (setting [4]) and in assay [3] (setting [4]) was less than 500 nM in each case.
As for `N#CCCN(CC1CC1)C(=O)c1csc(-c2ccnc3[nH]ccc23)n1` [compound 409], the Ki in assay [1] (setting [4]), in assay [2] (setting [4]) and in assay [3] (setting [4]) was less than 500 nM each time.
As to `Clc1cc(-c2ccnc3[nH]ccc23)ccn1` [compound 39, 4-(2-Chloro-pyridin-4-yl)-1H-pyrrolo[2,3-b]pyridine], the Ki lay in the range of 500 to 5000 nM in assay [1] (enzyme inhibition, Table 5); 500 to 5000 nM in assay [2] (setting [5]); 500 to 5000 nM in assay [3] (enzyme inhibition, Table 5).
With `c1ncc(-c2ccnc3[nH]ccc23)cn1` [compound 104, 4-Pyrimidin-5-yl-1H-pyrrolo[2,3-b]pyridine], the Ki in assay [1] (enzyme inhibition, Table 5) lay within 500 to 5000 nM; in assay [2] (setting [5]) it was 500 to 5000 nM; in assay [3] (enzyme inhibition, Table 5), 500 to 5000 nM.
As for `N#CC1(c2cccc(-c3ccnc4[nH]ccc34)n2)CC1` [compound 101, 1-(6-(1H-pyrrolo[2,3-b]pyridin-4-yl)pyridin-2-yl)cyclopropanecarbonitrile], the Ki in assay [1] (enzyme inhibition, Table 5) was less than 500 nM; in assay [2] (setting [5]) it was less than 500 nM; in assay [3] (enzyme inhibition, Table 5), less than 500 nM.
As to `CCOc1ccc(Cl)cc1-c1ccnc2[nH]ccc12` [compound 237], the results for the Ki in assay [1] (setting [4]), in assay [2] (setting [4]) and in assay [3] (setting [4]) were 500 to 5000 nM, 500 to 5000 nM and more than 5000 nM, respectively.
For the molecule `CCC(CC)NC(=O)c1ccc(-c2ccnc3[nH]ccc23)s1` [compound 17], the Ki was less than 500 nM in assay [2] (setting [5]) and less than 500 nM in assay [3] (enzyme inhibition, Table 5).
On to `O=C(NC1CCCC1)c1cc(-c2ccnc3[nH]ccc23)c[nH]1` [compound 263], for which the Ki in assay [1] (setting [4]), in assay [2] (setting [4]) and in assay [3] (setting [4]) was less than 500 nM each time.
Take `CN(CC(O)c1ccccc1)c1cccc(-c2ccnc3[nH]ccc23)n1` (stereo not drawn) [compound 55, 2-(N-(6-(1H-pyrrolo[2,3-b]pyridin-4-yl)pyridin-2-yl)-N-methylamino)1-phenylethanol]: the Ki is less than 500 nM in assay [1] (enzyme inhibition, Table 5); less than 500 nM in assay [2] (setting [5]); 500 to 5000 nM in assay [3] (enzyme inhibition, Table 5).
In the case of `COc1ccc(-c2ccnc3[nH]ccc23)cc1OC` [compound 1, 4-(3,4-dimethoxyphenyl)-1H-pyrrolo[2,3-b]pyridine], the Ki in assay [3] (enzyme inhibition, Table 5) lay in the range of 500 to 5000 nM.
With `CCC(CO)NC(=O)c1ccc(-c2ccnc3[nH]ccc23)s1` (racemic) [compound 14], the Ki was less than 500 nM in assay [2] (setting [5]) and less than 500 nM in assay [3] (enzyme inhibition, Table 5).
Turning to `O=C(NCCO)c1ccc(-c2ccnc3[nH]ccc23)s1` [compound 8], the Ki is less than 500 nM in assay [2] (setting [5]) and less than 500 nM in assay [3] (enzyme inhibition, Table 5).
Consider `COCCNC(=O)c1ccc(-c2ccnc3[nH]ccc23)s1` [compound 9], for which the Ki in assay [2] (setting [5]) is less than 500 nM; in assay [3] (enzyme inhibition, Table 5), less than 500 nM.
In the case of `CS(=O)(=O)Nc1cccc(CC(=O)Nc2cc(-c3ccnc4[nH]ccc34)cs2)c1` [compound 3], the Ki in assay [2] (setting [5]) is less than 500 nM; in assay [3] (enzyme inhibition, Table 5) it was less than 500 nM.
Regarding `O=C(c1ccc(-c2ccnc3[nH]ccc23)s1)N1CCNCC1` [compound 4], the Ki in assay [2] (setting [5]) was less than 500 nM; in assay [3] (enzyme inhibition, Table 5) it was less than 500 nM.
As for `COCC(=O)Nc1cc(-c2ccnc3[nH]ccc23)cs1` [compound 23], the Ki is less than 500 nM in assay [2] (setting [5]) and 500 to 5000 nM in assay [3] (enzyme inhibition, Table 5).
On the same counts, the results for `O=C(c1ccc(-c2ccnc3[nH]ccc23)s1)N1CCC[C@H]1CO` [compound 10] are less than 500 nM and less than 500 nM.
On the same counts, the results for `COC[C@H]1CCCN1C(=O)c1ccc(-c2ccnc3[nH]ccc23)s1` [compound 13] are less than 500 nM and less than 500 nM.
Consider `O=C(NCC1CCCO1)c1ccc(-c2ccnc3[nH]ccc23)s1` (stereo not drawn) [compound 6], for which the Ki in assay [2] (setting [5]) is less than 500 nM; in assay [3] (enzyme inhibition, Table 5), less than 500 nM.
In turn, `O=C(N[C@H](CO)c1cccc(Cl)c1)c1cc(-c2ccnc3[nH]ccc23)c[nH]1` [compound 2] registered a Ki in assay [3] (enzyme inhibition, Table 5) of 500 to 5000 nM.
For `COC[C@@H]1CCCN1C(=O)c1ccc(-c2ccnc3[nH]ccc23)s1` [compound 12], the Ki lay in the range of 500 to 5000 nM in assay [2] (setting [5]) and 500 to 5000 nM in assay [3] (enzyme inhibition, Table 5).
For the molecule `c1cc(NC2CCCC2)nc(-c2ccnc3[nH]ccc23)c1` [compound 24, N-Cyclopentyl-6-(1H-pyrrolo[2,3-b]pyridin-4-yl)pyridin-2-amine], the Ki in assay [1] (enzyme inhibition, Table 5) was 500 to 5000 nM; in assay [3] (enzyme inhibition, Table 5), 500 to 5000 nM.
As for `CC(=O)N(Cc1ccccc1)c1cc(-c2ccnc3[nH]ccc23)cs1` [compound 21], the Ki is 500 to 5000 nM in assay [2] (setting [5]) and less than 500 nM in assay [3] (enzyme inhibition, Table 5).
On to `C[C@@H](CO)NC(=O)c1ccc(-c2ccnc3[nH]ccc23)s1` [compound 15], for which the Ki in assay [2] (setting [5]) was less than 500 nM; in assay [3] (enzyme inhibition, Table 5) it was less than 500 nM.
Take `CCCNC(=O)c1ccc(-c2ccnc3[nH]ccc23)s1` [compound 7]: the Ki was less than 500 nM in assay [2] (setting [5]) and less than 500 nM in assay [3] (enzyme inhibition, Table 5).
Take `CC(C)C(CO)NC(=O)c1ccc(-c2ccnc3[nH]ccc23)s1` (stereo not drawn) [compound 16]: the Ki is less than 500 nM in assay [2] (setting [5]) and less than 500 nM in assay [3] (enzyme inhibition, Table 5).
As for `O=C(c1ccc(-c2ccnc3[nH]ccc23)s1)N1CCC[C@@H]1CO` [compound 11], the Ki in assay [2] (setting [5]) is less than 500 nM; in assay [3] (enzyme inhibition, Table 5) it was less than 500 nM.
